Patent US8795977B2, “Method for screening a potential modulator compound of a taste receptor” (Conopco, Inc., priority 2009, dated 2014)

Target: T1, T1R1/T1R3 umami receptor (Homo sapiens, UniProt Q7RTX0+Q7RTX1, C757R)
T1 construct: expressed in transfected cells; host or cells: HEK293 cells stably expressing Gα15, transiently transfected
T1 sequence (Q7RTX1 21-841): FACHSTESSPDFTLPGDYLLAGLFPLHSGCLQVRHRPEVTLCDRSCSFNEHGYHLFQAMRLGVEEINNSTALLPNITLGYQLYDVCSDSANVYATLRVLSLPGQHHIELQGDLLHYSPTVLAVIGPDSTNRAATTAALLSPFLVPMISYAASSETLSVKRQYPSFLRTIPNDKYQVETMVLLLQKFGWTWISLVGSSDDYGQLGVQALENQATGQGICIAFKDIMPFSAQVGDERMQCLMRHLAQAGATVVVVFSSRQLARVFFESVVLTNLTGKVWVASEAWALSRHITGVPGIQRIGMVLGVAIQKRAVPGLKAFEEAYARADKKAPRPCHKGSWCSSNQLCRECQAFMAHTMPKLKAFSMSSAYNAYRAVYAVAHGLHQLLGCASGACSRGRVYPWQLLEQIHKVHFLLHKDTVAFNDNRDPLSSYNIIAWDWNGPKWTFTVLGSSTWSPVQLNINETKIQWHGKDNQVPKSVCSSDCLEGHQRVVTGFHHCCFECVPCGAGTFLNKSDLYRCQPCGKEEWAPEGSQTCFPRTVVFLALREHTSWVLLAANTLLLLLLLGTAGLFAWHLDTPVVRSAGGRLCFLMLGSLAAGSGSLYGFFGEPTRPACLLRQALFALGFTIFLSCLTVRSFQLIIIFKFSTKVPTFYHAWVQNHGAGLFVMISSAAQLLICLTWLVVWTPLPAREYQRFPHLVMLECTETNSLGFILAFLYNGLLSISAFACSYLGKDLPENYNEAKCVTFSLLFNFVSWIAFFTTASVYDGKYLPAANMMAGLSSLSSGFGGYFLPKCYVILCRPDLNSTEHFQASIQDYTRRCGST
T1 sequence (Q7RTX0 21-852 C757R): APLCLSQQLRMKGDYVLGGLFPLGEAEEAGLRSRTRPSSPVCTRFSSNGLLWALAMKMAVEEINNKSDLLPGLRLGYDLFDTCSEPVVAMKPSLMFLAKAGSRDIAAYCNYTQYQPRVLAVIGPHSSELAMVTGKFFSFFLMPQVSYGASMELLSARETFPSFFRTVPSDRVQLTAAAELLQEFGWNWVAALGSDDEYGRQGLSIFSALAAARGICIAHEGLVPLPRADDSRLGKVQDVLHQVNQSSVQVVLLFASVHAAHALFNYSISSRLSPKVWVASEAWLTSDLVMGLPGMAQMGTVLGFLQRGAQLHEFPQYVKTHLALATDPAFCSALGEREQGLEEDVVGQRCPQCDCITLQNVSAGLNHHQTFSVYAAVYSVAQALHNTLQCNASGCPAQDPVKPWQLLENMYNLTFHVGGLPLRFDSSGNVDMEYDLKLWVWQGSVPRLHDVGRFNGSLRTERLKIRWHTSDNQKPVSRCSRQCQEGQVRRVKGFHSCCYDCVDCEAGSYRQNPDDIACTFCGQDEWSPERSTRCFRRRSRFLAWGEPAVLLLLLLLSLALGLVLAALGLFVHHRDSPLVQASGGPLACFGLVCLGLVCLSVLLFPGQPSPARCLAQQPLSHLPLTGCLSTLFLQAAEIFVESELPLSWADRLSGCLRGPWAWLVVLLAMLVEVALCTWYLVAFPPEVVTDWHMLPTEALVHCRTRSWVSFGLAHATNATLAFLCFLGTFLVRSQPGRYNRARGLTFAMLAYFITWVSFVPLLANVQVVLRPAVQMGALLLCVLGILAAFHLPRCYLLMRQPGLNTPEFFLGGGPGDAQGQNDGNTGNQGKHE
Experiment: Calcium-based receptor assay (release of intracellular calcium, Fluo-4-AM)
Format: cell-based
Parameters: key to T1R1/T1R3 receptor-specific signal, Calcium assay: +: For the calcium assay, cells expressing the umami receptor and Gα15 are compared with cells expressing Gα15 only; the difference between these signals is defined as umami receptor-specific signal; −: it was not possible to achieve umami receptor-specific signals using representative extracts and other complex mixtures using the calcium-based receptor assay
Settings: for release of intracellular calcium, T1R1/T1R3 umami receptor, average / release of intracellular calcium, T1R1/T1R3 umami receptor, meas. 1 / release of intracellular calcium, T1R1/T1R3 umami receptor, meas. 2: change in fluorescence (ΔF)
Protocol: FIG. 1 Activation of the T1R1/T1R3 umami receptor expressed in HEK293-Gα15 cells as measured by monitoring the release of intracellular calcium using the calcium fluorescent marker Fluo-4-AM as described in Example 2. Activity of the umami receptor was measured as the change in fluorescence which was calculated by subtracting the […]. Test solutions comprise extracts as indicated and prepared as described in Example 2. […]
We developed a unique functional umami receptor assay to evaluate and quantify umami in tomato and other crude plant or food extracts using the BRET technique: to test the principle we used the donor and acceptor proteins relating to BRET-2. In short, the human T1R1 and T1R3 taste receptors were cloned and fused with Renilla luciferase (Rluc) as donor protein; green fluorescent protein-2 (GFP2) served as acceptor protein and was fused to β-arrestin-2. Both constructs were transfected into a HEK293 cell line cells) for heterologous expression of the proteins. Various mammalian cell lines have been reported to be highly suitable for expression of receptors or other proteins, with HEK293 (human embryonic kidney) cells and CHO (Chinese hamster ovary) cells being some of the most versatile and suitable ones^12. Similarly, GPCRs can be expressed in various ways as described in multiple publications, such as transient^6, 8, 13-15 or stable (constitutive or inducible)^6, 9, 16, 17 expression, depending on the nature of the experiment, the respective receptor or the available time. Upon receptor stimulation with an agonist or crude extracts, the β-arrestin-2/GFP-2 protein interacts with the activated receptor thus bringing GFP-2 in close proximity with luciferase, making energy transfer between these two proteins possible and generating a BRET signal. In the presence of oxygen the luciferase catalyses the transformation of the substrate DeepBlueC into coelenteramide, which can be measured at 395-410 nm. If GFP-2 is in close proximity to the luciferase and energy transfer takes place, the emission will shift to 510 nm; this is referred to as the BRET signal and is expressed as ratio between the acceptor (GFP-2) and the donor (Renilla luciferase). The following experiments are designed to illustrate that conventional calcium-based functional receptor assays are not suitable for measuring the effects of crude extracts; in contrast, the BRET assay (as indicated here with umami) can clearly measure specific receptor responses using crude natural extracts. Moreover, the assay is also sensitive enough for detecting differences of receptor activation between the different tomato samples. Materials & Methods: Chemicals and Media: Fluo-4 AM was from Molecular Probes (# F-14202, prepared as 5 mM stock in DMSO), DMEM (with 4.5 g/l glucose and ultraglutamine, # BE12-604F) was from Lonza, trypsin-EDTA, Lipofectamine 2000, OptiMem and FCS were obtained from Life Technologies Invitrogen. Monosodium glutamate (MSG), Inosine 5′-monophosphate as well as all other chemicals were from Sigma-Aldrich. The plasmid encoding GFP2-β-arrestin-2 was purchased from BioSignal Packard (#6310176). Coelenterazine 400A (a DeepBlueC derivative) and Coelenterazine-H were from VWR International (# BTIU10125-1 and 233903-50, respectively). All other cell culture supplies were from Greiner BioOne. Receptor Fusion Constructs, Cell Lines, and Media: The human T1R1 and human T1R3 umami receptors were fused at their C-terminal in frame to Renilla Luciferase (Rluc) using standard molecular cloning techniques and the codon-humanized pRluc-N3 vector from PerkinElmer (#6310220). For expression of the umami receptors and the construct encoding GFP-2/β-arrestin-2, HEK293 cells (human embryonic kidney cells, ATCC) were used using traditional transfection methods (see also below). HEK293 cells were maintained in DMEM and 10% FBS at 37° C./5% CO2. […]

Which results are given for N[C@@H](CCC(=O)O)C(=O)[O-].[Na+] [MSG, Monosodium glutamate]?
release of intracellular calcium, T1R1/T1R3 umami receptor, average (100 μM MSG): 1170; release of intracellular calcium, T1R1/T1R3 umami receptor, meas. 1 (100 μM MSG): 1146; release of intracellular calcium, T1R1/T1R3 umami receptor, meas. 2 (100 μM MSG): 1193; release of intracellular calcium, T1R1/T1R3 umami receptor, average (1 mM MSG): 3269; release of intracellular calcium, T1R1/T1R3 umami receptor, meas. 1 (1 mM MSG): 2548; release of intracellular calcium, T1R1/T1R3 umami receptor, meas. 2 (1 mM MSG): 3990; release of intracellular calcium, T1R1/T1R3 umami receptor, average (10 mM MSG): 6749; release of intracellular calcium, T1R1/T1R3 umami receptor, meas. 1 (10 mM MSG): 5766; release of intracellular calcium, T1R1/T1R3 umami receptor, meas. 2 (10 mM MSG): 7732; T1R1/T1R3 receptor-specific signal, Calcium assay (MSG 10 mM): +; umami receptor-specific response in the calcium-based receptor assay (in words) (receptor-expressing versus control cells): umami receptor-specific responses
